Results on 16 compounds are retold here after ChEMBL document CHEMBL5244275, “Geminal Diheteroatomic Motifs: Some Applications of Acetals, Ketals, and Their Sulfur and Nitrogen Homologues in Medicinal Chemistry and Drug Design” (J Med Chem, 2021).

Molecules are shown by their SMILES. ≈ marks a conversion by molar mass, not a printed value.

The nature of data set [1]: Drug degradation in citrate buffer at pH 4 measured after 18 hrs. It is filed as physicochemical. The note with it: read-out: Drug degradation.
Data set [2] is described as follows: Dissociation constant, pKa of the compound. It is filed as physicochemical.
A short description of data set [3]: Drug degradation in citrate buffer at pH 8.5 measured after 18 hrs. It counts as physicochemical. Particulars: read-out: Drug degradation.
Data set [4] concerns the target Muscarinic acetylcholine receptor M2 (Homo sapiens, UniProt P08172). The data set can be described thus: Antagonist activity at muscarinic M2 receptor (unknown origin) assessed as inhibition constant.
Data set [5] can be described thus: Half-life in rat at 10 mg/kg, po. It counts as ADME, organism-based. The note with it: in vivo.
Data set [6] can be described thus: Oral bioavailability in mouse. It counts as ADME, organism-based. The note with it: in vivo.
Data set [7] in a line: Oral bioavailability in rat. Particulars: in vivo. It is filed as ADME, organism-based.
A short description of data set [8]: Stability of the compound assessed as compound hydrolysis by measuring rate constant. It counts as physicochemical.
A short description of data set [9]: Stability of the compound at pH 7.4 aqueous phosphate buffer assessed as half-life. It is filed as physicochemical.
Data set [10] concerns Candida albicans. Description: Fungicidal activity against Candida albicans. It is filed as functional.
Data set [11] is described as follows: Clearance in Chimpanzee at 0.5 mg/kg, iv bolus injection. It counts as ADME, organism-based, Pan troglodytes. The note with it: in vivo.
For data set [12], the system named is Candida albicans. Description: Antifungal activity against Candida albicans GS. It is filed as functional, organism-based.
A short description of data set [13]: Clearance in Chimpanzee at 0.5 mg/kg administered as iv infusion. It counts as ADME, organism-based, Pan troglodytes. Particulars: in vivo.
The nature of data set [14]: Oral bioavailability in dog. It counts as ADME, organism-based, Canis lupus familiaris. Particulars: in vivo.
Data set [15] addresses Somatostatin receptor type 2 (Homo sapiens, UniProt P30874). The data set can be described thus: Inhibition of human SSTR2.
The nature of data set [16]: Antiplatelet activity in human platelet rich plasma assessed as platelet aggregation. It is filed as functional, cell-free.
Data set [17] is described as follows: Clearance in rat plasma assessed as half-life. It counts as ADME, cell-free.
Data set [18] in a line: Clearance in dog plasma assessed as half-life. It counts as ADME, cell-free, Canis lupus familiaris.
Data set [19] has as its target Sterol O-acyltransferase 1 (Homo sapiens, UniProt P35610). Description: Inhibition of ACAT in human THP-1. It counts as cell-based.
Data set [20] in a line: Aqueous solubility of the compound at pH 1.3 to 8. It is filed as physicochemical. The note with it: buffer.
Data set [21] in a line: Stability of the compound at pH 7.30 assessed as degradation half life. It counts as physicochemical. The note with it: buffer, pH 7.3.
Data set [22] is described as follows: Stability of the compound at pH 1.3 assessed as degradation half life. It counts as physicochemical. The note with it: buffer.
Data set [23] is described as follows: Inhibition of Acinetobacter baumannii beta-lactamase OXA-235.
The nature of data set [24]: Inhibition of Acinetobacter baumannii beta-lactamase OXA-143.
The nature of data set [25]: Inhibition of Acinetobacter baumannii beta-lactamase OXA-24.
Data set [26] is described as follows: Ratio of drug concentration in brain to plasma in mouse at 30 mg/kg, po measured after 6 hrs. The note with it: read-out: BPR. It is filed as ADME, organism-based.
Data set [27] concerns the target Amyloid-beta precursor protein (Homo sapiens, UniProt P05067). Description: Inhibition of amyloid beta (1 to […] ) (unknown origin).
Data set [28] is described as follows: Stability of the compound assessed as compound hydrolysis by measuring relative rate constant by dilatometric method. It counts as physicochemical.
Data set [29] is described as follows: Half-life of the compound in aqueous solution at pH 6.0. It counts as physicochemical.
Data set [30] can be described thus: Tmax in human. It counts as ADME.
Data set [31] is described as follows: Half-life in human. It counts as ADME.

Chain of Sterol O-acyltransferase 1 (P35610 whole entry): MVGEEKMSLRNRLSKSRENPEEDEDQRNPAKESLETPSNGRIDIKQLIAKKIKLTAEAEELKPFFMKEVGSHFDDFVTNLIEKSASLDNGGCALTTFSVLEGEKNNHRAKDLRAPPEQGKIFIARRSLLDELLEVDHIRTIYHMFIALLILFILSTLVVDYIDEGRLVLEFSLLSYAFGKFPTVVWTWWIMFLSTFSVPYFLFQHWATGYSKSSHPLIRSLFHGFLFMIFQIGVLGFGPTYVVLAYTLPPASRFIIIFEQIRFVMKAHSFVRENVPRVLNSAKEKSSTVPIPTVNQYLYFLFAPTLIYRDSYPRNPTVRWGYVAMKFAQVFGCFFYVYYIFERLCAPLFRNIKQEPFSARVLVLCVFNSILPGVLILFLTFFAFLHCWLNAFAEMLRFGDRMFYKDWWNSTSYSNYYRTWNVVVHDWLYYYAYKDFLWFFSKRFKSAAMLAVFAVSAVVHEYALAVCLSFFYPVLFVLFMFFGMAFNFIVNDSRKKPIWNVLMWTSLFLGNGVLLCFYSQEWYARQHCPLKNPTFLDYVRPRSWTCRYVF
Chain of Somatostatin receptor type 2 (P30874 whole entry): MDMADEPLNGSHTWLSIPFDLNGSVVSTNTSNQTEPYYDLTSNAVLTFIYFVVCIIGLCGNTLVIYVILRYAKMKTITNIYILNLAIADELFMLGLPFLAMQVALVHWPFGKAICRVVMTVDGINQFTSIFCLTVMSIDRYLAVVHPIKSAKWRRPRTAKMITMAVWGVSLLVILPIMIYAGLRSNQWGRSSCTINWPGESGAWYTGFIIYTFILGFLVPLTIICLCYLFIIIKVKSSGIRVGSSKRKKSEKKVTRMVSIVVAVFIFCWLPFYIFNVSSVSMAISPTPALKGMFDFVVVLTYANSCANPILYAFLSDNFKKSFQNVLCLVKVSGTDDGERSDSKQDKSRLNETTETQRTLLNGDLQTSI
Chain of Amyloid-beta precursor protein (P05067 whole entry): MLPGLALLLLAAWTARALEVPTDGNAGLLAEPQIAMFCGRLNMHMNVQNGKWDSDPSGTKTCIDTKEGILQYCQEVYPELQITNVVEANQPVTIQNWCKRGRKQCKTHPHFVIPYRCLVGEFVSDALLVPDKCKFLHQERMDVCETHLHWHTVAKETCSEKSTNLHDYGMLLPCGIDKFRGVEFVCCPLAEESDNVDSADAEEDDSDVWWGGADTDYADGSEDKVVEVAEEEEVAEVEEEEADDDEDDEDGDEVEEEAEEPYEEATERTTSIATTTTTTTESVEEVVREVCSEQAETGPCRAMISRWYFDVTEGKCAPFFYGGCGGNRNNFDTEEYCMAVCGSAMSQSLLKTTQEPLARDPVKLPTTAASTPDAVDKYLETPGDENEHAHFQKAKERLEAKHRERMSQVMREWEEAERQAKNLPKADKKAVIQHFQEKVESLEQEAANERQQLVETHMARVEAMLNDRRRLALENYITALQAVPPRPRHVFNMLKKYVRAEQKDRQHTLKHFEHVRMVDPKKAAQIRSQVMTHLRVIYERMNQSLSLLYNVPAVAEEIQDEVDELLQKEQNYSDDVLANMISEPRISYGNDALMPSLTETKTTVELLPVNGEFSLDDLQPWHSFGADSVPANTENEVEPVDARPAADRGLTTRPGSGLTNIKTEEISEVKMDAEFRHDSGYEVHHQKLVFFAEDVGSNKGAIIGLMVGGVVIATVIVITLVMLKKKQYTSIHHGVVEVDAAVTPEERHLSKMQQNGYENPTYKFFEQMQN
Chain of Muscarinic acetylcholine receptor M2 (P08172 whole entry): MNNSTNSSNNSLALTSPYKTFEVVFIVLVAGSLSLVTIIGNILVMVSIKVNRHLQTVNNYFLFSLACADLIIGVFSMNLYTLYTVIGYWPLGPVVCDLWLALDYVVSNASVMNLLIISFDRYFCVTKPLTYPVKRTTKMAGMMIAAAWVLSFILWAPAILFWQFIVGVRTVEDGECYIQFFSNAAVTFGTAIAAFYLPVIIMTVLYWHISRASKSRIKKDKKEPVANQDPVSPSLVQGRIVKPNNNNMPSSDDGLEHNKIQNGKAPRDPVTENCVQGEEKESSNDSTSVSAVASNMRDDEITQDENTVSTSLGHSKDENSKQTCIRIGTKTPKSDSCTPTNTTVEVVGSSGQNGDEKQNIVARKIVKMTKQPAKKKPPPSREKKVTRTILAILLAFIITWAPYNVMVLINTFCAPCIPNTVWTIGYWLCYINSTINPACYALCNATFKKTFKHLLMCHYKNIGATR

By pKa is commonly meant the pH at which an ionisable group is half protonated. The low end stands for a group that gives up its proton readily, the high end for a group that holds its proton tightly. On to `CC(=O)NC[C@H]1CN(c2ccc(N3CCOCC3)c(F)c2)C(=O)O1` [LINEZOLID], for which the degraded at 18 h in data set [1] is below 1%; in data set [3], 40%. The compound further returned a pKa in [2] below 6.
One may read the Ki as the equilibrium dissociation constant of an inhibitor or competing ligand from its target. As for `CCCS(=O)(=O)N1CCC(N2CCC(C3(c4ccc(S(=O)(=O)c5ccc6c(c5)OCO6)cc4)CCCO3)CC2)CC1` (stereo unspecified), the Ki in data set [4] was determined as 5 nM.
One may read the half-life as how long it takes for the measured level to halve. A word on the bioavailability: it is dose-corrected exposure relative to a reference, in per cent. The low end stands for little systemic uptake, the high end for much systemic uptake. `CN1CCN(C2CCN(C(=O)CC3CCC4(CC3)OOC3(OO4)C4CC5CC(C4)CC3C5)CC2)CC1` (stereo unspecified): in data set [5], the half-life was 2.4 h. Further, the bioavailability in data set [6] worked out at 42%; in data set [7], 38%.
On to `FC1(F)[C@H]2O[C@@H]1[C@H](COCc1ccccc1)[C@@H](COCc1ccccc1)O2`, for which, in data set [8], the K is 2.4 10^-3/M/s. The half-life in data set [9] was above 720 h.
Usually MFC stands for the lowest tested concentration that kills the fungus rather than only halting it. A higher MFC goes with weaker fungicidal potency. Broadly, the clearance is a measure of how efficiently the substance is removed, as volume per time. Higher therefore signals a high capacity for elimination. Usually IC50 stands for the concentration that gives 50% inhibition. A lower IC50 goes with greater potency. In turn, `CC[C@H](C)C[C@H](C)CCCCCCCCC(=O)N[C@H]1C[C@@H](O)[C@@H](NCCN)NC(=O)[C@@H]2[C@@H](O)CCN2C(=O)[C@H]([C@H](O)CCN)NC(=O)[C@H]([C@H](O)[C@@H](O)c2ccc(O)cc2)NC(=O)[C@@H]2C[C@@H](O)CN2C(=O)[C@H]([C@@H](C)O)NC1=O` [CASPOFUNGIN] yielded an MFC with Candida albicans [10] of 0.125 mg/L (≈ 0.114 µM). The clearance in [11] was 0.0156 L/h/kg; in [13], 0.0126 L/h/kg. The same compound came in with an IC50 in the data set on Candida albicans [12] of 0.6 nM.
For the compound `COc1ccc(C2=CN(CNC(C)=O)CC2=O)cc1`, the degraded at 18 h is below 1% in [1] and 40% in data set [3]. The compound further had a pKa in [2] below 6.
Regarding `C[C@@H](c1c[nH]c2ccccc12)[C@H](C(=O)N[C@@H](CCCCN)C(=O)OC(C)(C)C)N1CCN(CCCc2ccccc2)C1=O`, the bioavailability in data set [14] stood at 5%. Besides, affinity in data set [15] was put at a Ki of 3.6 nM.
A word on the EC50: it is the concentration giving half of the maximal effect. In the case of `CCCCC[C@H](O)/C=C/[C@H]1O[C@H]2C[C@H](O2)[C@@H]1C/C=C\CCCC(=O)O`, the K in [8] is 5.5 10^5/M/s. For the same compound, in [16], the EC50 is 162 nM.
Regarding `CCOc1ccc(Cc2cc([C@]34OC[C@](CO)(O3)[C@@H](O)[C@H](O)[C@H]4O)ccc2Cl)cc1` [ERTUGLIFLOZIN], the half-life was 4.1 h in data set [17] and 7.6 h in data set [18].
`Cc1cc(C)n(CCCC[C@H]2CO[C@H](c3nc(-c4ccccc4)c(-c4ccccc4)[nH]3)OC2)n1` came in with an IC50 in data set [19] above 500 nM.
The term solubility denotes how much of the substance goes into solution per volume. Read a high solubility as much dissolved substance. In [20], `COc1cc([C@@H]2c3cc4c(cc3[C@@H](O[C@@H]3O[C@@H]5CO[C@@H](C)O[C@H]5[C@H](O)[C@H]3O)[C@H]3COC(=O)[C@H]23)OCO4)cc(OC)c1O` [ETOPOSIDE] registered a solubility of 0.116 mg/mL (≈ 197 µM). Moreover, the half-life in data set [21] is 27.7 h; in data set [22], 2.88 h.
Take `C[C@]1(COC(=O)Cc2ccc(O)c(O)c2)[C@H](C(=O)O)N2C(=O)/C(=C/c3ccccn3)[C@H]2S1(=O)=O`: the IC50 is 8 nM in data set [23], 3 nM in [24] and 15 nM in [25].
In the case of `CCC(=O)O[C@@H]([C@H]1C[C@@H](C)[C@H]2[C@H](O1)[C@H](O)[C@@]1(C)[C@@H]3CC[C@H]4C(C)(C)[C@@H](O[C@H]5CN(C6CN(C)C6)CCO5)CC[C@@]45C[C@@]35CC[C@]21C)C(C)(C)O`, in data set [26], the Kp at 6 h turned out to be 0.55. This compound also had an IC50 in data set [27] of 100 nM. Further, the bioavailability in data set [6] was found to be 45%.
As for `CC1OCCO1`, in [28], the K was 5.1 10^3No_unit.
Compound `CO[C@@]1(NC(=O)CCC[C@@H](N)C(=O)O)C(=O)N2C(C(=O)O)=C(COC(N)=O)CS[C@@H]21` gave a half-life in data set [29] of 459 h.
In general, Tmax refers to the time at which the peak concentration occurs. In the case of `CN1CCN(C(=O)O[C@H]2c3nccnc3C(=O)N2c2ccc(Cl)cn2)CC1` [ESZOPICLONE], in data set [30], the Tmax stood at 1 h. In addition, the half-life in [31] is 5 h.
